{"source": "paper PMC9822769", "about": "“The Strange Case: The Unsymmetric Cisplatin-Based Pt(IV) Prodrug [Pt(CH3COO)Cl2(NH3)2(OH)] Exhibits Higher Cytotoxic Activity with respect to Its Symmetric Congeners due to Carrier-Mediated Cellular Uptake” (Bioinorganic Chemistry and Applications, 2022)", "assay_type_in_all_cases": "cell-based, human", "key": {"NT2-D1": {"test_system": "NT2-D1", "assay": "Resazurin reduction cell viability assay, NT2-D1", "settings": "72 h of treatment; mean ± sd", "protocol": "(§1) The compounds under investigation were tested on a panel of commercial human cancer cell lines: ovarian endometrioid adenocarcinoma A2780 (ICLC HTL98008), its cisplatin-resistant variant A2780cisR (ECACC 93112517), colon carcinoma HCT 116 (ECACC 91091005), breast invasive ductal carcinoma MCF7 (ECACC 86012803), embryonal carcinoma NTERA-2 clone D1 (also known as NT2/D1, ICLC HTL97025), and lung adenocarcinoma A549 (ICLC HTL03001). Furthermore, a cell line derived from the pleural effusion of a patient with untreated malignant pleural mesothelioma (MPM) was added to the panel, namely, MM98 (sarcomatoid phenotype). Commercial cells were purchased from the European Collection of Authenticated Cell Cultures (ECACC, UK) or the Interlab Cell Line Collection (ICLC, Genoa, Italy), while the MM98 cell line was obtained from the Pathology Unit of the National Hospital of Alessandria (Italy).\n(§2) The following media were used to grow the cells: RPMI 1640 (for A2780, A2780cisR, NT2/D1, and A549 cells), DMEM (for MCF7 cells), DMEM supplemented with nonessential amino acids (for MM98 cells), and McCoy's 5A (for HCT 116 cells). All media contained L-glutamine (2 mM) and were added with penicillin (100 IU·mL^−1), streptomycin (100 mg·L^−1), and 10% heat inactivated FBS. To maintain resistance in A2780cisR cells, cisplatin (1 μM) was added to the medium every two passages.\n(§3) Continuous treatments (CT) were carried out at 37°C in a humidified chamber with 5% CO2. Cisplatin was dissolved in a 0.9% w/v NaCl aqueous solution and brought to pH = 3 with HCl (final stock concentration 1 mM). The Pt(IV) Complexes 1–3 were dissolved in milliQ water (final stock concentration 5 mM) and stored at −20°C. The stock concentration was confirmed with inductively coupled plasma-mass spectrometry (ICP-MS) measurements. The mother solutions were diluted in a complete medium to the required concentration.\n(§4) To assess the growth inhibition of the compounds under investigation, a cell viability test (i.e., the resazurin reduction assay) was used. […] At the end of the treatment (72 h), viability was evaluated with 100 μg·mL^−1 resazurin (Acros Chemicals, France) in a fresh medium for 1 h at 37°C, and the amount of the reduced product, resorufin, was measured by fluorescence (excitation λ = 535 nm, emission λ = 595 nm) with a Tecan Infinite F200Pro plate reader (Tecan, Austria). In each experiment, cells were challenged with drug candidates at different concentrations, and the final data were calculated from at least three replicates of the same experiment performed in triplicate. The fluorescence of 8 wells containing a medium without cells was used as a blank. Fluorescence data were normalized to 100% cell viability for nontreated cells. […]"}, "MM98": {"test_system": "MM98", "assay": "Resazurin reduction cell viability assay, MM98", "settings": "72 h of treatment; mean ± sd", "protocol": "as §1, §2, §3, §4"}, "A2780cisR": {"test_system": "A2780cisR", "assay": "Resazurin reduction cell viability assay, A2780cisR", "settings": "for resistance factor, RF = IC50 A2780cisR/IC50 A2780: 72 h, rounded to the nearest unity; for IC50: 72 h of treatment, cisplatin-resistant, mean ± sd", "protocol": "as §1, §2, §3\nTo assess the growth inhibition of the compounds under investigation, a cell viability test (i.e., the resazurin reduction assay) was used. In brief, 2–5 × 10^3 cells per well (depending on the cell line) were seeded in black sterile tissue culture-treated 96-well plates. At the end of the treatment (72 h), viability was evaluated with 100 μg·mL^−1 resazurin (Acros Chemicals, France) in a fresh medium for 1 h at 37°C, and the amount of the reduced product, resorufin, was measured by fluorescence (excitation λ = 535 nm, emission λ = 595 nm) with a Tecan Infinite F200Pro plate reader (Tecan, Austria). In each experiment, cells were challenged with drug candidates at different concentrations, and the final data were calculated from at least three replicates of the same experiment performed in triplicate. The fluorescence of 8 wells containing a medium without cells was used as a blank. Fluorescence data were normalized to 100% cell viability for nontreated cells. The half-inhibiting concentration (IC50), defined as the concentration of the drug that reduces cell viability by 50%, was obtained from the dose-response sigmoid using Origin Pro (version 8, Microcal Software Inc., Northampton, MA, USA)."}, "A2780 cells": {"test_system": "A2780 cells", "assay": "Cellular Pt accumulation (accumulation ratio, ICP-MS) in A2780 cells", "settings": "A2780, 4 h CT, 10 μM", "protocol": "A2780 and A2780cisR cells were seeded in 10 mm Petri dishes and challenged with complexes under investigation (10 μM) in a complete medium for 4 h. At the end of the exposure, cells were washed three times with PBS, detached from Petri dishes using 0.05% trypsin 1x + 2% EDTA (HyClone, Thermo Fisher), and harvested in a completely fresh medium. An automatic cell counting device (Countess®, Life Technologies) was used to measure the number and mean diameter of each cell necessary to calculate the mean cellular (spherical) volume.\nFor the analysis of Pt accumulation, cells were transferred to a borosilicate glass tube and centrifuged at 1100 rpm for 5 min at room temperature. The supernatant was carefully removed by aspiration, while approximately, 200 μL of the supernatant was left to limit cell loss. Cellular pellets were stored at −80°C until mineralization.\nThe determination of the platinum content was performed by ICP-MS (Thermo Optek X Series 2). Mineralization was carried out by adding 70% w/w HNO3 to each sample (after defrosting), followed by incubation for 1 h at 60°C in an ultrasonic bath. Before the ICP-MS measurement, HNO3 was diluted to a final concentration of 1%. The instrument settings were optimized to produce the highest platinum sensitivity, and the most abundant isotopes of Pt and In (used as an internal standard) were quantified at m/z 195 and 115, respectively.\nThe quantity of Pt found in cells and normalized on cell number (cellular Pt accumulation) was expressed as ng of Pt per 10^6 cells. The mean cellular volume, calculated from the actual mean cell diameter measured for each sample (about 12 μm), was used to obtain the volume of 10^6 cells and, finally, the intracellular Pt concentration. At treatment time zero, 100 μL of the medium was taken from each sample to verify the extracellular Pt concentration. The ratio between intracellular and the actual extracellular concentrations is defined as the accumulation ratio, AR [70]. The Pt content in the control experiment, which characterizes any possible Pt contamination during the overall process, was statistically insignificant with respect to the cellular Pt accumulated during treatment, even in the case of A2780cisR.\nExperiments with the inhibitors were carried out at 37°C as follows: (i) NaN3 + 2-deoxy-D-glucose (2DG): preincubation for 30 min in PBS with 25 mM NaN3 and 25 mM 2DG, followed by a 10 μM CT with the Pt compounds in Earle's Balanced Salt Solution (EBSS) for 1 h; (ii) cimetidine (CMT): coincubation with 1.5 mM CMT and 10 μM Pt compounds in EBSS for 1 h; (iii) 1-methyl-4-phenylpyridin-1-ium (MPP^+): coincubation with 2.0 mM MPP^+ and 10 μM Pt compounds in EBSS for 1 h; (iv) cytochalasin D (CTD): preincubation for 30 min in EBSS with 10 μM CTD, followed by a 10 μM CT with the Pt compounds in EBSS for 1 h; (v) O-benzylserine (BS): coincubation with 1.0 mM BS and 10 μM Pt compounds in EBSS for 4 h; (vi) ouabain (OUA): preincubation for 1 h in EBSS with 1 mM OUA, followed by a 10 μM CT with the Pt compounds in EBSS for 4 h; (vii) tetraethylammonium chloride (TEA): preincubation for 1 h with 2.0 mM TEA followed by 10 μM Pt compounds in EBSS for 4 h. In the experiments at low temperature, A2780 cells were preincubated for 2 h at 4°C, followed by CT with each Pt compound (10 μM) for 4 h. In all cases, at the end of the CT, the cells were manipulated as described in the previous paragraphs."}, "A2780": {"test_system": "A2780", "assay": "Resazurin reduction cell viability assay, A2780", "settings": "72 h of treatment; mean ± sd", "protocol": "as §1, §2, §3, §4"}}}
{"compound": "N.N.[Cl][Pt][Cl]", "note": "[Cisplatin, (SP-4-2)-diamminedichloridoplatinum(II)]", "values": [{"measurement": "IC50", "setting": "NT2-D1", "result": "0.1 ± 0.04", "unit": "µM"}, {"measurement": "IC50", "setting": "MM98", "result": "3.2 ± 1.02", "unit": "µM"}, {"measurement": "resistance factor, RF = IC50 A2780cisR/IC50 A2780", "setting": "A2780cisR", "result": 13}, {"measurement": "IC50", "setting": "A2780cisR", "result": "6.22 ± 1.02", "unit": "µM"}, {"measurement": "ratio between AR 37°C and AR 4°C", "setting": "A2780 cells", "result": "increases hugely"}, {"measurement": "IC50", "setting": "A2780", "result": "0.48 ± 0.12", "unit": "µM"}]}
{"compound": "N.N.[OH][Pt]([OH])([Cl])[Cl]", "note": "[Complex 1, (OC-6-33)-diamminedichloridodihydroxidoplatinum(IV)]", "values": [{"measurement": "IC50", "setting": "NT2-D1", "result": "1.44 ± 0.16", "unit": "µM"}, {"measurement": "IC50", "setting": "MM98", "result": "> 100", "unit": "µM"}, {"measurement": "resistance factor, RF = IC50 A2780cisR/IC50 A2780", "setting": "A2780cisR", "result": 14}, {"measurement": "IC50", "setting": "A2780cisR", "result": "52.1 ± 3.48", "unit": "µM"}, {"measurement": "ratio between AR 37°C and AR 4°C", "setting": "A2780 cells", "result": 3.2}, {"measurement": "IC50", "setting": "A2780", "result": "3.71 ± 1.93", "unit": "µM"}]}
{"compound": "CC(=O)[O][Pt]([OH])([Cl])[Cl].N.N", "note": "[Complex 2, (OC-6-44)-acetatodiamminedichloridohydroxidoplatinum(IV)]", "values": [{"measurement": "IC50", "setting": "NT2-D1", "result": "0.21 ± 0.08", "unit": "µM"}, {"measurement": "IC50", "setting": "MM98", "result": "3.67 ± 1.32", "unit": "µM"}, {"measurement": "resistance factor, RF = IC50 A2780cisR/IC50 A2780", "setting": "A2780cisR", "result": 6}, {"measurement": "IC50", "setting": "A2780cisR", "result": "1.02 ± 0.68", "unit": "µM"}, {"measurement": "ratio between AR 37°C and AR 4°C", "setting": "A2780 cells", "result": "increases hugely"}, {"measurement": "accumulation ratio (AR)", "setting": "A2780 cells; 37°C", "result": "higher AR at 4 h than 1 and 3, even higher than that of cisplatin"}, {"measurement": "IC50", "setting": "A2780", "result": "0.16 ± 0.05", "unit": "µM"}]}
{"compound": "CC(=O)[O][Pt]([NH2])([NH2])([Cl])([Cl])[O]C(C)=O", "note": "[Complex 3, (OC-6-33)-diamminedichloridodiacetatoplatinum(IV)]", "values": [{"measurement": "IC50", "setting": "NT2-D1", "result": "4.3 ± 1.13", "unit": "µM"}, {"measurement": "IC50", "setting": "MM98", "result": "> 100", "unit": "µM"}, {"measurement": "IC50", "setting": "A2780cisR", "result": "> 100", "unit": "µM"}, {"measurement": "ratio between AR 37°C and AR 4°C", "setting": "A2780 cells", "result": 3.6}, {"measurement": "IC50", "setting": "A2780", "result": "12.1 ± 5.2", "unit": "µM"}]}
